# Assay results published in patent US5227372A, “Method for retaining ophthalmological agents in ocular tissues” (Children's Medical Center Corporation, priority 1990, dated 1993).
# Tests used:
# [1] = rabbit, in vivo
# [2] = rabbit, in vivo; remark: listed apart in the source
# Procedure: A polyethylene ring was glued to the cornea in anesthesized rabbits. Saline containing 1 mg/ml of [S^35 ]-β-cyclodextrin tetradecasulfate was added to each well for up to 120 minutes, after which the wells were removed and the corneas vigorously rinsed with saline. The anterior chamber fluid (ACF) was then aspirated. The corneas were then exised and digested in collegenase and the corneal supernatunt counted.
# [3] = tested on: fibroblast growth factor (FGF); details: sulfated cyclodextrin column; Shing et al.; cited from earlier work
# [4] = intravenous injection; fluorescein alone; cited from earlier work
# [5] = Fluorescence of Descemet's membrane in histological sections of corneas after application to the cornea (Example 4); type: in vivo, rabbit; details: fluorescein alone
# [6] = Fluorescence of neovascularized corneal vessels after injection into the carotid artery (Example 4); type: in vivo, rabbit; details: injected into the carotid artery; fluorescein alone
# Procedure: The water soluble complex described in Example 3 was injected into the carotid artery of rabbits who had neovascularization in the cornea induced by a pellet of endotoxin implanted one week earlier. After a single injection, the new vessels in the cornea were still flourescing green 3 hours later.
# Similarly, when the cyclodextrin-fluorscein complex, dissolved in an aqueous solution of methylcellulose (0.45%), was applied to the rabbit cornea, Descemet's membrane in the cornea also glowed green more than 3 hours later when histological sections of the corneas were examined.
# [7] = polyacrylamide and copolymer of acrylamide, N-vinylpyrrolidone and ethyl acrylate matrix; cited from earlier work
# [8] = polymeric film; cited from earlier work
compound,measurement,setting,value
β-cyclodextrin tetradecasulfate,concentration in the aqueous humor relative to cornea,[1],"parallels that in the cornea, but at lower levels"
same,time course in the cornea,[1],rapid rise in the cornea of labelled β-cyclodextrin tetradecasulfate and then a gradual fall-off
same,time after removal of wells up to which label is detected in the ACF and in the corneas,[2],up to three
same,time course of penetration in both the corneas and ACF,[2],increased bearly with time
same,affinity for FGF,[3],high affinity
O=C1OC2(c3ccc(O)cc3Oc3cc(O)ccc32)c2ccccc21 [fluorescein],time to clearance from the blood vessels,[4],less than one
same,presence in Descemet's membrane,[5],not found in Descemet's membrane
same,disappearance from the corneal vessels,[6],disappeared from the corneal vessels within a few minutes
CC[C@@H]1C(=O)OC[C@@H]1Cc1cncn1C [pilocarpine],increase in ocular bioavailability of pilocarpine,[7],three
same,increase in ocular bioavailability of pilocarpine over aqueous solution,[8],two
